Experimental data from ChEMBL document CHEMBL1765079, “Syntheses of 2-deoxy-2,3-didehydro-N-acetylneuraminic acid analogues modified by N-sulfonylamidino groups at the C-4 position and biological evaluation as inhibitors of human parainfluenza virus type 1” (Bioorg Med Chem, 2011).
pIC50: −log10 of the molar value.

These molecules were tested against T1, Hemagglutinin-neuraminidase (Human parainfluenza virus 1, UniProt Q06992) (assay: Inhibition of Human parainfluenza virus 1 sialidase using N-acetyl-alpha-neuramic acid by fluorometric assay).
T1 sequence (Q06992 whole entry): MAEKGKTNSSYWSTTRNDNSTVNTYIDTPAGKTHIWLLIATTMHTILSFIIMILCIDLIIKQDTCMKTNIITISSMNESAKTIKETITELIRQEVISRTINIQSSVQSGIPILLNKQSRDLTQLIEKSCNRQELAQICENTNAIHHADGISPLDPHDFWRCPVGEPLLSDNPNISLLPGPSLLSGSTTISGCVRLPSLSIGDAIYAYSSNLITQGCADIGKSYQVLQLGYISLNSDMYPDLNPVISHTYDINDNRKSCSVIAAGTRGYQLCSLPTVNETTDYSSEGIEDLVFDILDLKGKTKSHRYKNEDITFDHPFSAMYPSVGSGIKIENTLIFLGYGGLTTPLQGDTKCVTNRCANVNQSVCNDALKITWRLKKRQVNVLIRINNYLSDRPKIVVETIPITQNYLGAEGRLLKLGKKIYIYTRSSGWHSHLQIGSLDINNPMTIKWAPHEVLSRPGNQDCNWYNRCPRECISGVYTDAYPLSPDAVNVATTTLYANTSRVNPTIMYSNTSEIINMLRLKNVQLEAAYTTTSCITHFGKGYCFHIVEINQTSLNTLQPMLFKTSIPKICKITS
Parameters: species or system Human respirovirus 1

Compared with `CCN(CC)/C(CCO[C@H]1C=C(C(=O)O)O[C@@H]([C@H](O)[C@H](O)CO)[C@@H]1NC(C)=O)=N/S(C)(=O)=O`, `CCN(CC)/C(CCO[C@H]1C=C(C(=O)O)O[C@@H]([C@H](O)[C@H](O)CO)[C@@H]1NC(C)=O)=N\S(=O)(=O)c1ccc(C)cc1` is 0.78 log units lower in pIC50: 2.82 for the first, 2.04 for the second. The first is the more potent here.

`CC(=O)N[C@H]1[C@H]([C@H](O)[C@H](O)CO)OC(C(=O)O)=C[C@@H]1N=C(Cc1cccs1)NS(C)(=O)=O` and `CC(=O)N[C@H]1[C@H]([C@H](O)[C@H](O)CO)OC(C(=O)O)=C[C@@H]1N=C(Cc1ccccc1)NS(C)(=O)=O` are within 0.2 log units of each other in pIC50: 2.70 for the first, 2.68 for the second.

`CC(=O)N[C@H]1[C@H]([C@H](O)[C@H](O)CO)OC(C(=O)O)=C[C@@H]1N=C(Cc1ccc(F)cc1)NS(C)(=O)=O` and `CC(=O)N[C@H]1[C@H]([C@H](O)[C@H](O)CO)OC(C(=O)O)=C[C@@H]1N=C(CC1=CCCCC1)NS(C)(=O)=O` are within 0.2 log units of each other in pIC50: 2.80 for the first, 2.82 for the second.

Going from `CC(=O)N[C@H]1[C@H]([C@H](O)[C@H](O)CO)OC(C(=O)O)=C[C@@H]1N=C(C)NS(C)(=O)=O` to `CC(=O)NC1[C@H](C(O)[C@H](O)CO)OC(C(=O)O)=C[C@@H]1O` (single isomer, unassigned) [NEU5AC2EN], the pIC50 rises from 1.80 to 3.52 (1.72 log units).

Going from `CCCc1ccc(C/C(=N/S(C)(=O)=O)N[C@H]2C=C(C(=O)O)O[C@@H]([C@H](O)[C@H](O)CO)[C@@H]2NC(C)=O)cc1` to `CC(=O)N[C@H]1[C@H]([C@H](O)[C@H](O)CO)OC(C(=O)O)=C[C@@H]1OCCC(=NC(C)C)NS(=O)(=O)c1ccc(C)cc1`, the pIC50 falls from 2.80 to 2.11 (0.69 log units).

Compared with `CC(=O)N[C@H]1[C@H]([C@H](O)[C@H](O)CO)OC(C(=O)O)=C[C@@H]1OCC/C(=N\S(=O)(=O)c1ccc(C)cc1)N(C(C)C)C(C)C`, `CC(=O)N[C@H]1[C@H]([C@H](O)[C@H](O)CO)OC(C(=O)O)=C[C@@H]1OCCC(=Nc1ccccc1)NS(C)(=O)=O` is 0.78 log units higher in pIC50: 2.32 for the first, 3.10 for the second. The second is the more potent here.
